Measurements reported in patent publication US6747049B2, “Oxazole derivatives” (Hoffmann-La Roche Inc., priority 2002, dated 2004).

Experiments:
PPARγ [1] = molecular target: T1, PPARγ (Mus musculus, UniProt P37238); test: PPARγ radioligand binding assay (scintillation proximity, GST-PPARγ-LBD); details: SPA beads
T1 construct: made in house; host or cells: E. coli BL21(pLysS)
T1 sequence (P37238 204-505): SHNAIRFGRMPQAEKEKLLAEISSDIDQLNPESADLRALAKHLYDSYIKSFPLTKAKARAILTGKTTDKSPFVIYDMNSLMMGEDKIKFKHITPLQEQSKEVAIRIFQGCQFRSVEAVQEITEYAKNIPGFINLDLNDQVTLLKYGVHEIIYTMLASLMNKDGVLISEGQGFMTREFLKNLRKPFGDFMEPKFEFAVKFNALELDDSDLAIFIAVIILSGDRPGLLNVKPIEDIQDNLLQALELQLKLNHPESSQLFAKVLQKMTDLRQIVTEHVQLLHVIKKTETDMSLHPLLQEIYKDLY
Description: Background information on the performed assays can be found in: Nichols J S et al. “Development of a scintillation proximity assay for peroxisome proliferator-activated receptor gamma ligand binding domain”, (1998) Anal. Biochem. 257:112-119.
(§1) Full-length cDNA clones for human PPARα and mouse PPARγ were obtained by RT-PCR from human adipose and mouse liver cRNA, respectively, cloned into plasmid vectors and verified by DNA sequencing. Bacterial and mammalian expression vectors were constructed to produce glutathione-s-transferase (GST) and Gal4 DNA binding domain proteins fused to the ligand binding domains (LBD) of PPARγ (aa 174 to 476) and PPARα (aa 167 to 469). To accomplish this, the portions of the cloned sequences encoding the LBDs were amplified from the full-length clones by PCR and then subcloned into the plasmid vectors. Final clones were verified by DNA sequence analysis.
Induction, expression, and purification of GST-LBD fusion proteins were performed in E. coli strain BL21(pLysS) cells by standard methods (Ref: Current Protocols in Molecular Biology, Wiley Press, edited by Ausubel et al.).
Radioligand Binding Assay
PPARγ receptor binding was assayed in TKE50 (50 mM Tris-HCl, pH 8, 50 mM KCl, 2 mM EDTA, 0.1 mg/ml fatty acid-free BSA and 10 mM DTT). For each 96 well reaction an 140 ng equivalent of GST-PPARγ-LBD fusion protein was bound to 10 ug SPA beads (PharmaciaAmersham) in a final volume of 50 ul by shaking. The resulting slurry was incubated for 1 h at RT and centrifuged for 2 min at 1300 g. The supernatant containing unbound protein was removed and the semidry pellet containing the receptor-coated beads was resolved in 50 ul of TKE. For radioligand binding e.g. 10000 dpm 2(S)-(2-benzoyl-phenylamino)-3-{4-[1,1-ditritio-2-(5-methyl-2-phenyl-oxazol-4-yl)-ethoxy]-phenyl}-propionic acid in 50 ul were added, the reaction incubated at RT for 1 h and scintillation proximity counting performed. All binding assays were performed in 96 well plates and the amount of bound ligand measured on a Packard TopCount using OptiPlates (Packard). Nonspecific binding was determined in the presence of 10^−4 M unlabelled compound. Dose response curves were done in triplicates within a range of concentration from 10^−10 M to 10^−4 M.

PPARα = molecular target: T2, PPARα (Homo sapiens, UniProt Q07869); test: Luciferase transcriptional reporter gene assay, pFA-PPARα-LBD in BHK21 cells; assay type: cell-based; details: Gal4-PPARα-LBD luciferase reporter, 24 hours incubation
T2 construct: expressed in transfected cells; host or cells: BHK21 (ATCC CCL10)
T2 sequence (Q07869 167-468 limits assumed): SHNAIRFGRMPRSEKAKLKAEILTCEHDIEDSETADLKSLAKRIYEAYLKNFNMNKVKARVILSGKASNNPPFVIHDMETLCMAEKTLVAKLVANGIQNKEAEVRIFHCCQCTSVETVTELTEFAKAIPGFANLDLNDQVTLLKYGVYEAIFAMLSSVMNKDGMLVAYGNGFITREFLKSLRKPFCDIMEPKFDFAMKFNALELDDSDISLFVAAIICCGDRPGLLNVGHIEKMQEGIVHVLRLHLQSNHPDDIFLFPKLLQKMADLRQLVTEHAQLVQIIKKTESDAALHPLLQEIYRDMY
Description: Full-length cDNA clones for human PPARα and mouse PPARγ were obtained by RT-PCR from human adipose and mouse liver cRNA, respectively, cloned into plasmid vectors and verified by DNA sequencing. […] To accomplish this, the portions of the cloned sequences encoding the LBDs were amplified from the full-length clones by PCR and then subcloned into the plasmid vectors. Final clones were verified by DNA sequence analysis.
(§2) Luciferase Transcriptional Reporter Gene Assays
(§3) Baby hamster kidney cells (BHK21 ATCC CCL10) were grown in DMEM medium containing 10% FBS at 37° C. in a 95%[…]:5%CO2 atmosphere. Cells were seeded in 6 well plates at a density of 10^5 Cells/well and then batch-transfected with either the pFA-PPARγ-LBD or pFA-PPARα-LBD expression plasmids plus the pFR-luc reporter plasmid and an expression plasmid encoding the secretable form of alkaline phosphatase (SEAP) as a normalization control. […] Six hours following transfection, the cells were harvested by trypsinization and seeded in 96 well plates at a density of 10^4 cells/well. After 24 hours to allow attachment of cells, the medium was removed and replaced with 100 ul of phenol red-free medium containing the test substances or control ligands (final. 0.1% DMSO). Following incubation of the cells for 24 hours with substances, 50 ul of the supernatant was recovered and analyzed for SEAP activity (Roche Molecular Biochemicals). The remainder of the supernatant was discarded, 50 ul PBS was added per well followed by one volume of Luciferase Constant-Light Reagent (Roche Molecular Biochemicals) to lyse the cells and initiate the luciferase reaction. Luminescence for both SEAP and luciferase was measured in a Packard TopCount. Luciferase activity was normalized to the SEAP control and transcriptional activation in the presence of a test substance was expressed as fold-activation over cells incubated in the absence of the substance. EC50 values were calculated using the XLfit program (ID Business Solutions Ltd. UK).

PPARγ [2] = molecular target: T3, PPARγ (Mus musculus, UniProt P37238); test: Luciferase transcriptional reporter gene assay, pFA-PPARγ-LBD in BHK21 cells; assay type: cell-based; details: Gal4-PPARγ-LBD luciferase reporter, 24 hours incubation
T3 construct: expressed in transfected cells; host or cells: BHK21 (ATCC CCL10)
T3 sequence (P37238 174-475 isoform P37238-2): T1 sequence (P37238 204-505)
Description: as §1, §2, §3

| IC50 (PPARγ [1]) | EC50 (PPARα) | EC50 (PPARγ [2]) | Structure (SMILES) |
| --- | --- | --- | --- |
| 980 nM | 2050 nM | 1410 nM | COc1cccc(CN(c2ccccc2)c2ccc(OCCc3nc(-c4ccccc4)oc3C)cc2)c1C(=O)O [Example 26, 2-methoxy-6-[({4-[2-(5-methyl-2-phenyl-oxazol-4-yl)-ethoxy]-phenyl}-phenyl-amino)-methyl]-benzoic acid] |
| 240 nM | 10000 nM | 1980 nM | Cc1oc(-c2ccccc2)nc1CCOc1ccc(N(Cc2c(F)cccc2C(=O)O)c2ccccc2)cc1 [Example 18, 3-fluoro-2-[({4-[2-(5-methyl-2-phenyl-oxazol-4-yl)-ethoxy]-phenyl}-phenyl-amino)-methyl]-benzoic acid] |
| 1080 nM | 2590 nM | 2320 nM | Cc1oc(-c2ccccc2)nc1CCOc1ccc(N(Cc2ccccc2C(=O)O)c2ccc(F)cc2)cc1 [Example 12, 2-[((4-fluoro-phenyl)-{4-[2-(5-methyl-2-phenyl-oxazol-4-yl)-ethoxy]-phenyl}-amino)-methyl]-benzoic acid] |
| 930 nM | 2700 nM | 1320 nM | CCCN(Cc1ccccc1C(=O)O)c1ccc(OCCc2nc(-c3ccccc3)oc2C)cc1 [Example 6, 2-[({4-[2-(5-methyl-2-phenyl-oxazol-4-yl)-ethoxy]-phenyl}-propyl-amino)-methyl]-benzoic acid] |
